Measured values: patent publication US20130158362A1 (INFACARE PHARMACEUTICAL CORPORATION, priority 2011, published 2013)

System: total serum bilirubin (TSB)
Test: Phase 2b trial: total serum bilirubin (TSB), adjusted and unadjusted, change from baseline
Assay type: in vivo, human
Parameters: total serum bilirubin / total serum bilirubin, Delta (change from baseline) / Change from baseline of total serum bilirubin: unit not given here
Settings: for total serum bilirubin / total serum bilirubin, Delta (change from baseline): 48 hours, preliminary data; for change from baseline in adjusted TSB, LS mean (SEM) / change from baseline in adjusted TSB, LS mean difference versus placebo / change from baseline in unadjusted TSB, LS Mean (SEM) / change from baseline in unadjusted TSB, LS Mean Difference versus placebo / change from baseline in adjusted TSB, LS mean (SEM) (primary endpoint): ANCOVA; for change from baseline in adjusted TSB, LS mean difference versus placebo, MMRM / change from baseline in adjusted TSB, LS means (SEM), MMRM: observed case
Method: Three cohorts of subjects were recruited. This clinical study was designed to evaluate safety and efficacy parameters in each cohort.
Scheduled assessments (including TSB) occurred before treatment and at 0.75 and 2 hours (or 1.5 and 3 hours, depending on PK blood sampling assignment); 6, 12, 24, 48, and 72 hours; and 14 and 30 (except TSB) days after treatment or early termination.
The primary efficacy endpoint was the change in adjusted TSB from baseline to 48 hours after treatment. The adjusted TSB was a calculation of the percentage variance of the TSB level from the age specific threshold for PT initiation per the AAP Guidelines, i.e., an indication of the distance below the PT threshold by time.
The Secondary Efficacy Endpoints were the change from baseline in unadjusted TSB at 48 hours after treatment, change from baseline in adjusted and unadjusted TSB at various other time points after treatment, percent change from baseline in unadjusted TSB, proportion of subjects who require PT/exchange transfusion (ET), time to PT/ET, duration of PT and time to hospital discharge.
Intent-to-treat population (ITT): Defined as all subjects who were randomly assigned treatment in the clinical study, had received IMP, and had at least 1 post baseline TSB measurement during the first 48 hours after treatment. Subjects were summarized based on randomized treatment.
Analysis of Efficacy Parameters: The primary efficacy analysis applied the analysis of covariance (ANCOVA) method to determine if there was a significant difference between treatment groups in change in adjusted TSB levels from baseline to 48 hours post baseline after controlling for the effects of gestational age and adjusted baseline TSB levels. If assumptions of ANCOVA appeared to be violated, a Wilcoxon rank-sum test could be performed instead. Time-to-event variables were analyzed using the Kaplan-Meier method, and Kaplan-Meier survival curves were presented.

[1] = 1.5 mg/kg, 6 hrs, unadjusted TSB, ITT Population
[2] = 1.5 mg/kg, 12 hrs, unadjusted TSB, ITT Population
[3] = 1.5 mg/kg, 24 hrs, unadjusted TSB, ITT Population
[4] = 1.5 mg/kg, 48 hrs, unadjusted TSB, ITT Population
[5] = 1.5 mg/kg, baseline, PP Population
[6] = 1.5 mg/kg, baseline, unadjusted TSB, ITT Population
[7] = 3.0 mg/kg IM, 48 h/early termination, ITT, LOCF

tin IV mesoporphyrin IX dichloride [Stannsoporfin]
6 hrs TSB, Mean (SD) [1]: 9.09 (2.175) mg/dL | 6 hrs TSB, Min [1]: 5.1 mg/dL | 12 hrs Percent Change from Baseline in TSB, Max [2]: 73.2% | 12 hrs Percent Change from Baseline in TSB, Mean (SD) [2]: 29.91 (21.467) % | 12 hrs Percent Change from Baseline in TSB, Min [2]: −12.8% | 12 hrs TSB, Max [2]: 14.3 mg/dL | 12 hrs TSB, Mean (SD) [2]: 9.82 (2.599) mg/dL | 12 hrs TSB, Min [2]: 5.6 mg/dL | 24 hrs Percent Change from Baseline in TSB, Max [3]: 66.1% | 24 hrs Percent Change from Baseline in TSB, Mean (SD) [3]: 30.23 (27.126) % | 24 hrs Percent Change from Baseline in TSB, Median [3]: 38.20% | 24 hrs Percent Change from Baseline in TSB, Min [3]: −33.3% | 24 hrs TSB, Max [3]: 12.2 mg/dL | 24 hrs TSB, Mean (SD) [3]: 9.61 (2.566) mg/dL | 24 hrs TSB, Min [3]: 5.2 mg/dL | 48 hrs Percent Change from Baseline in TSB, Max [4]: 82.3% | 48 hrs Percent Change from Baseline in TSB, Mean (SD) [4]: 32.71 (37.298) % | 48 hrs Percent Change from Baseline in TSB, Min [4]: −57.7% | 48 hrs TSB, Max [4]: 13.5 mg/dL | 48 hrs TSB, Mean (SD) [4]: 9.85 (3.208) mg/dL | 48 hrs TSB, Min [4]: 3.3 mg/dL | mean TSB levels (1.5 mg/kg, 14 days after treatment (text, not LOCF table)): 3.06 mg/dL | Baseline unadjusted TSB, Max [5]: 12.0 mg/dL | Baseline unadjusted TSB, Mean (SD) [5]: 7.52 (2.030) mg/dL | Baseline unadjusted TSB, Median [5]: 7.35 mg/dL | Baseline unadjusted TSB, Min [5]: 4.3 mg/dL | Baseline TSB, Max [6]: 12.0 mg/dL | Baseline TSB, Mean (SD) [6]: 7.59 (1.816) mg/dL | Baseline TSB, Min [6]: 4.3 mg/dL | total serum bilirubin (3.0 mg/kg IM (N = 13), treated per protocol): 10.53 ± 2.9 | adjusted TSB, Mean (SD) (3.0 mg/kg IM, 6 h, ITT, LOCF): −13.20 (13.118) % | change from baseline in adjusted TSB, Mean (SD) (3.0 mg/kg IM, 6 h, ITT, LOCF): 2.72 (7.274) % | change from baseline in adjusted TSB, Median (3.0 mg/kg IM, 6 h, ITT, LOCF): 2.10% | change from baseline in unadjusted TSB, Mean (SD) (3.0 mg/kg IM, 6 h, ITT, LOCF): 1.53 (0.762) mg/dL | change from baseline in unadjusted TSB, Median (3.0 mg/kg IM, 6 h, ITT, LOCF): 1.35 mg/dL | unadjusted TSB, Mean (SD) (3.0 mg/kg IM, 6 h, ITT, LOCF): 9.74 (1.730) mg/dL | unadjusted TSB, Median (3.0 mg/kg IM, 6 h, ITT, LOCF): 9.90 mg/dL | change from baseline in adjusted TSB, LS mean (SEM) (3.0 mg/kg IM, 6 h, ITT, LOCF): 2.57 (2.186) % | change from baseline in adjusted TSB, LS mean difference versus placebo (3.0 mg/kg IM, 6 h, ITT, LOCF): −1.82% | change from baseline in unadjusted TSB, LS Mean (SEM) (3.0 mg/kg IM, 6 h, ITT, LOCF): 1.39 (0.254) mg/dL | change from baseline in unadjusted TSB, LS Mean Difference versus placebo (3.0 mg/kg IM, 6 h, ITT, LOCF): -0.20 mg/dL | change from baseline in adjusted TSB, LS mean difference versus placebo, MMRM (3.0 mg/kg IM, 6 h, ITT): −1.69% | change from baseline in adjusted TSB, LS means (SEM), MMRM (3.0 mg/kg IM, 6 h, ITT): 2.68 (2.252) % | adjusted TSB, Mean (SD) (3.0 mg/kg IM, 12 h, ITT, LOCF): −15.06 (13.787) % | change from baseline in adjusted TSB, Mean (SD) (3.0 mg/kg IM, 12 h, ITT, LOCF): 0.87 (9.503) % | change from baseline in adjusted TSB, Median (3.0 mg/kg IM, 12 h, ITT, LOCF): 1.55% | change from baseline in unadjusted TSB, Mean (SD) (3.0 mg/kg IM, 12 h, ITT, LOCF): 2.05 (1.004) mg/dL | change from baseline in unadjusted TSB, Median (3.0 mg/kg IM, 12 h, ITT, LOCF): 1.90 mg/dL | unadjusted TSB, Mean (SD) (3.0 mg/kg IM, 12 h, ITT, LOCF): 10.26 (1.748) mg/dL | unadjusted TSB, Median (3.0 mg/kg IM, 12 h, ITT, LOCF): 10.90 mg/dL | change from baseline in adjusted TSB, LS mean (SEM) (3.0 mg/kg IM, 12 h, ITT, LOCF): 2.64 (3.209) % | change from baseline in adjusted TSB, LS mean difference versus placebo (3.0 mg/kg IM, 12 h, ITT, LOCF): −4.50% | change from baseline in unadjusted TSB, LS Mean (SEM) (3.0 mg/kg IM, 12 h, ITT, LOCF): 2.06 (0.393) mg/dL | change from baseline in unadjusted TSB, LS Mean Difference versus placebo (3.0 mg/kg IM, 12 h, ITT, LOCF): -0.54 mg/dL | change from baseline in adjusted TSB, LS mean difference versus placebo, MMRM (3.0 mg/kg IM, 12 h, ITT): −5.14% | change from baseline in adjusted TSB, LS means (SEM), MMRM (3.0 mg/kg IM, 12 h, ITT): 0.83 (2.821) % | adjusted TSB, Mean (SD) (3.0 mg/kg IM, 24 h, ITT, LOCF): −24.46 (11.302) % | change from baseline in adjusted TSB, Mean (SD) (3.0 mg/kg IM, 24 h, ITT, LOCF): −8.53 (16.045) % | change from baseline in adjusted TSB, Median (3.0 mg/kg IM, 24 h, ITT, LOCF): −3.10% | change from baseline in unadjusted TSB, Mean (SD) (3.0 mg/kg IM, 24 h, ITT, LOCF): 1.85 (1.596) mg/dL | change from baseline in unadjusted TSB, Median (3.0 mg/kg IM, 24 h, ITT, LOCF): 2.08 mg/dL | unadjusted TSB, Mean (SD) (3.0 mg/kg IM, 24 h, ITT, LOCF): 10.06 (1.757) mg/dL | unadjusted TSB, Median (3.0 mg/kg IM, 24 h, ITT, LOCF): 10.45 mg/dL | change from baseline in adjusted TSB, LS mean (SEM) (3.0 mg/kg IM, 24 h, ITT, LOCF): −9.21 (4.598) % | change from baseline in adjusted TSB, LS mean difference versus placebo (3.0 mg/kg IM, 24 h, ITT, LOCF): −9.12% | change from baseline in unadjusted TSB, LS Mean (SEM) (3.0 mg/kg IM, 24 h, ITT, LOCF): 1.67 (0.578) mg/dL | change from baseline in unadjusted TSB, LS Mean Difference versus placebo (3.0 mg/kg IM, 24 h, ITT, LOCF): -1.08 mg/dL | change from baseline in adjusted TSB, LS mean difference versus placebo, MMRM (3.0 mg/kg IM, 24 h, ITT): −7.01% | change from baseline in adjusted TSB, LS means (SEM), MMRM (3.0 mg/kg IM, 24 h, ITT): −8.57 (3.894) % | adjusted TSB, Mean (SD) [7]: −31.80 (18.214) % | adjusted TSB, Median [7]: −24.75% | change from baseline in adjusted TSB, Mean (SD) (3.0 mg/kg IM, 48 h, ITT, LOCF): −15.88 (21.406) % | change from baseline in adjusted TSB, Median (3.0 mg/kg IM, 48 h, ITT, LOCF): −9.05% | change from baseline in unadjusted TSB, Mean (SD) (3.0 mg/kg IM, 48 h, ITT, LOCF): 2.47 (2.703) mg/dL | change from baseline in unadjusted TSB, Median (3.0 mg/kg IM, 48 h, ITT, LOCF): 2.94 mg/dL | unadjusted TSB, Mean (SD) (3.0 mg/kg IM, 48 h, ITT, LOCF): 10.68 (2.956) mg/dL | unadjusted TSB, Median (3.0 mg/kg IM, 48 h, ITT, LOCF): 11.65 mg/dL | change from baseline in adjusted TSB, LS mean (SEM) (primary endpoint) (3.0 mg/kg IM, 48 h, ITT, LOCF): −11.60 (5.612) % | change from baseline in adjusted TSB, LS mean difference versus placebo (3.0 mg/kg IM, 48 h, ITT, LOCF): −10.02% | change from baseline in unadjusted TSB, LS Mean (SEM) (3.0 mg/kg IM, 48 h, ITT, LOCF): 2.90 (0.886) mg/dL | change from baseline in unadjusted TSB, LS Mean Difference versus placebo (3.0 mg/kg IM, 48 h, ITT, LOCF): -1.34 mg/dL | change from baseline in adjusted TSB, LS mean (SEM) (primary endpoint) (3.0 mg/kg IM, 48 h, ITT, LOCF, listed as stannsoporfin): 11.6% | change from baseline in adjusted TSB, LS mean difference versus placebo, MMRM (3.0 mg/kg IM, 48 h, ITT): −9.24% | change from baseline in adjusted TSB, LS means (SEM), MMRM (3.0 mg/kg IM, 48 h, ITT): −15.92 (4.919) % | total serum bilirubin (3.0 mg/kg IM, intent to treat): 10.68 ± 3.0 | total serum bilirubin, Delta (change from baseline) (3.0 mg/kg IM, intent to treat): 2.47 ± 2.7 | total serum bilirubin, Delta (change from baseline) (3.0 mg/kg IM, treated per protocol): 2.20 ± 2.9 | adjusted TSB, Mean (SD) (3.0 mg/kg IM, 72 h/early termination, ITT, LOCF): −42.64 (21.640) % | change from baseline in adjusted TSB, Mean (SD) (3.0 mg/kg IM, 72 h, ITT, LOCF): −26.72 (24.245) % | change from baseline in adjusted TSB, Median (3.0 mg/kg IM, 72 h, ITT, LOCF): −17.30%
